Drawing on US20160002204A1 (Board of Regents, The University of Texas System, priority 2014, published 2016), this text covers EC50 and IC50 for 21 molecules.

For assay [1], the system named is A549 cells. Briefly: A549 proliferation (viability) assay, Cell Titer Fluor, 72 hours. The note with it: Homo sapiens. The assay is classed as cell-based. A digest of the protocol: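 A549 cells seeded at 1000 cells/well, left 24 h, then exposed to compound for 72 h at 37 °C, 5% CO2, final DMSO 0.5% (v/v). Viability read by Cell Titer Fluor fluorescence; EC50 from four-parameter logistic fit.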

Assay [2] addresses T1, GLS1 (purified recombinant human GAC) (Homo sapiens, UniProt O94925).
T1 sequence (O94925 55-598 isoform O94925-3 limits assumed): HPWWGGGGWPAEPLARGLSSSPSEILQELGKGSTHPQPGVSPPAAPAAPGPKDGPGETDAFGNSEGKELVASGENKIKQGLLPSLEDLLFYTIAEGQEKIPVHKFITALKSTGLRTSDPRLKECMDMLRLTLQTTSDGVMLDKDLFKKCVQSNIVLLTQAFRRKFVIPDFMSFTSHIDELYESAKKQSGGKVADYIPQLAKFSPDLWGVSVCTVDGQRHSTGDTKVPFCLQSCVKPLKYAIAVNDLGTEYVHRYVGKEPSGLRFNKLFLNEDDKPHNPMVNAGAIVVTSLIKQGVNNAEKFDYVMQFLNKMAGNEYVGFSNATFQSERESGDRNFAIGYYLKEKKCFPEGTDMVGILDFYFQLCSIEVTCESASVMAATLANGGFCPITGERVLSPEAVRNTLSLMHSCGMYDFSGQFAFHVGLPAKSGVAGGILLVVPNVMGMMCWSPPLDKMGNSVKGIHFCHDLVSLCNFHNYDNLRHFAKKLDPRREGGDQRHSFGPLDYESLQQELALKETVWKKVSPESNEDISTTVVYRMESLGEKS
Briefly: GLS1 enzymatic activity assay (dual-coupled, Amplex UltraRed/resorufin). The assay is classed as biochemical. A digest of the protocol:
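In this coupled fluorometric format, phosphate-activated GAC (2 nM, 50 mM phosphate) is pre-exposed to compound for 10 min before 1 mM glutamine addition. Product is tracked as resorufin (530/590 nm) over time or at 20 min, and potency is derived by logistic fitting.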

pEC50, pIC50: −log10 of the molar value.

The pEC50 is −log10 of the EC50, conventionally taken in molar units. A high value points to a low EC50. The term pIC50 denotes the negative decadic logarithm of the IC50, by convention in mol/L. In assay [1], `O=C(CC1CCCCC1)Nc1ccn(CCCCn2cc(C(=O)NCc3ncccc3F)nn2)c(=O)c1` [Example 146, 1-{4-[4-(2-cyclohexylacetamido)-2-oxo-1,2-dihydropyridin-1-yl]butyl}-N-[(3-fluoropyridin-2-yl)methyl]-1H-1,2,3-triazole-4-carboxamide] showed a pEC50 of 6.30 to 7.00. For the same molecule, in assay [2], the pIC50 is greater than 7.00.
`O=C(Nc1ccn(CCC(F)Cn2cc(C(=O)NCc3cccc(OC(F)(F)F)c3)nn2)c(=O)c1F)c1ccccc1` (stereo not drawn) [Example 353, 1-[4-(4-benzamido-3-fluoro-2-oxo-1,2-dihydropyridin-1-yl)-2-fluorobutyl]-N-{[3-(trifluoromethoxy)phenyl]methyl}-1H-1,2,3-triazole-4-carboxamide] had a pEC50 in assay [1] of 6.30 to 7.00. Moreover, in assay [2], the pIC50 was greater than 7.00.
In assay [1], `O=C(Nc1ccn(CCCCc2nnc(C(=O)NCc3ccccc3)s2)c(=O)n1)OCc1ccccc1` [Example 122, benzyl N-(1-{4-[5-(benzylcarbamoyl)-1,3,4-thiadiazol-2-yl]butyl}-2-oxo-1,2-dihydropyrimidin-4-yl)carbamate] gave a pEC50 of 6.30 to 7.00. Besides, the pIC50 in assay [2] is 6.30 to 7.00.
`O=C(Nc1ccn(CCC(F)Cn2cc(C(=O)NCc3cccc(C(F)(F)F)c3)nn2)c(=O)c1F)C(=O)N1CCCCC1` (stereo not drawn) [Example 421, 1-(2-fluoro-4-{3-fluoro-2-oxo-4-[2-oxo-2-(piperidin-1-yl)acetamido]-1,2-dihydropyridin-1-yl}butyl)-N-{[3-(trifluoromethyl)phenyl]methyl}-1H-1,2,3-triazole-4-carboxamide]: the negative-log EC50 (pEC50) in assay [1] is greater than 7.00. Moreover, the pIC50 in assay [2] was greater than 7.00.
In turn, `CC(C)(C)COC(=O)Nc1ccn(CCC(F)Cn2cc(C(=O)NCc3cc(C(F)(F)F)ccn3)nn2)c(=O)n1` (stereo not drawn) [Example 492, 2,2-dimethylpropyl N-(1-{3-fluoro-4-[4-({[4-(trifluoromethyl)pyridin-2-yl]methyl}carbamoyl)-1H-1,2,3-triazol-1-yl]butyl}-2-oxo-1,2-dihydropyrimidin-4-yl)carbamate] gave a pEC50 in assay [1] greater than 7.00. The pIC50 in assay [2] was greater than 7.00.
`O=C(Cc1ccc2ccccc2n1)Nc1ccn(CCC(F)Cn2cc(C(=O)NCc3cccc(OC(F)(F)F)c3)nn2)c(=O)c1` (stereo not drawn) [Example 253, 1-(2-fluoro-4-{2-oxo-4-[2-(quinolin-2-yl)acetamido]-1,2-dihydropyridin-1-yl}butyl)-N-{[3-(trifluoromethoxy)phenyl]methyl}-1H-1,2,3-triazole-4-carboxamide]: in assay [1], the pEC50 was 5.30 to 6.30. In addition, the pIC50 in assay [2] is greater than 7.00.
`O=C(CC1CCC(O)CC1)Nc1ccn(CCCCn2cc(C(=O)NCc3cccc(OC(F)(F)F)c3)nn2)c(=O)c1` (stereo not drawn) [Example 208, 1-(4-{4-[2-(4-hydroxycyclohexyl)acetamido]-2-oxo-1,2-dihydropyridin-1-yl}butyl)-N-{[3-(trifluoromethoxy)phenyl]methyl}-1H-1,2,3-triazole-4-carboxamide]: the pEC50 in assay [1] is 5.30 to 6.30. Also, the pIC50 in assay [2] is greater than 7.00.
For the molecule `CC(C)(C)OC(=O)Nc1ccn(CCCCn2cc(C(=O)NCc3cccc(C(F)(F)F)c3)nn2)c(=O)c1` [Example 139, tert-butyl N-(2-oxo-1-{4-[4-({[3-(trifluoromethyl)phenyl]methyl}carbamoyl)-1H-1,2,3-triazol-1-yl]butyl}-1,2-dihydropyridin-4-yl)carbamate], in assay [1], the pEC50 was 6.30 to 7.00. The pIC50 in assay [2] is greater than 7.00.
On to `O=C(CN1CCN(C(=O)CC(F)(F)F)CC1)Nc1ccn(CCC(F)Cn2cc(C(=O)NCc3cccc(OC(F)(F)F)c3)nn2)c(=O)c1F` (stereo not drawn) [Example 308, 1-[2-fluoro-4-(3-fluoro-2-oxo-4-{2-[4-(3,3,3-trifluoropropanoyl)piperazin-1-yl]acetamido}-1,2-dihydropyridin-1-yl)butyl]-N-{[3-(trifluoromethoxy)phenyl]methyl}-1H-1,2,3-triazole-4-carboxamide], for which the negative-log EC50 (pEC50) in assay [1] is 6.30 to 7.00. For the same molecule, the pIC50 in assay [2] is greater than 7.00.
As to `O=C(CC1CCC1)Nc1ccn(CCC(F)Cn2cc(C(=O)NCc3ccc(OC(F)(F)F)cn3)nn2)c(=O)c1F` (stereo not drawn) [Example 389, 1-{4-[4-(2-cyclobutylacetamido)-3-fluoro-2-oxo-1,2-dihydropyridin-1-yl]-2-fluorobutyl}-N-{[5-(trifluoromethoxy)pyridin-2-yl]methyl}-1H-1,2,3-triazole-4-carboxamide], in assay [1], the pEC50 is greater than 7.00. Further, the pIC50 in assay [2] was greater than 7.00.
Molecule `CC1(C)CN(C(=O)C(=O)Nc2ccn(CCC(F)Cn3cc(C(=O)NCc4cccc(OC(F)(F)F)c4)nn3)c(=O)c2F)C1` (stereo not drawn) [Example 428, 1-(4-{4-[2-(3,3-dimethylazetidin-1-yl)-2-oxoacetamido]-3-fluoro-2-oxo-1,2-dihydropyridin-1-yl}-2-fluorobutyl)-N-{[3-(trifluoromethoxy)phenyl]methyl}-1H-1,2,3-triazole-4-carboxamide] had a negative logarithm of the EC50 (pEC50) in assay [1] greater than 7.00. Further, the pIC50 in assay [2] is greater than 7.00.
As for `O=C(CC1CCCC1)Nc1ccn(CCC(F)Cn2cc(C(=O)NCc3cc(Cl)ccc3F)nn2)c(=O)c1F` (stereo not drawn) [Example 395, N-[(5-chloro-2-fluorophenyl)methyl]-1-{4-[4-(2-cyclopentylacetamido)-3-fluoro-2-oxo-1,2-dihydropyridin-1-yl]-2-fluorobutyl}-1H-1,2,3-triazole-4-carboxamide], in assay [1], the pEC50 is greater than 7.00. Further, the pIC50 in assay [2] is greater than 7.00.
Consider `Nc1nnc(CCCCn2ccc(NC(=O)Cc3ccccc3)nc2=O)s1` [Example 72, N-{1-[4-(5-amino-1,3,4-thiadiazol-2-yl)butyl]-2-oxo-1,2-dihydropyrimidin-4-yl}-2-phenylacetamide], for which the negative logarithm of the EC50 (pEC50) in assay [1] was less than 5.30. The pIC50 in assay [2] is 5.30 to 6.30.
Consider `O=C(Cc1cccc(N2CCOCC2)c1)Nc1ccn(CCC(F)Cn2cc(C(=O)NCc3cccc(OC(F)(F)F)c3)nn2)c(=O)c1` (stereo not drawn) [Example 237, 1-[2-fluoro-4-(4-{2-[3-(morpholin-4-yl)phenyl]acetamido}-2-oxo-1,2-dihydropyridin-1-yl)butyl]-N-{[3-(trifluoromethoxy)phenyl]methyl}-1H-1,2,3-triazole-4-carboxamide], for which the pEC50 in assay [1] was 6.30 to 7.00. For the same molecule, the pIC50 in assay [2] is greater than 7.00.
In the case of `CC(C)(C)OC(=O)N[C@H]1CCC[C@H](C(=O)Nc2ccn(CCCCn3cc(C(=O)NCc4cccc(OC(F)(F)F)c4)nn3)c(=O)c2)C1` [Example 211, tert-butyl N-[(1S,3S)-3-[(2-oxo-1-{4-[4-({[3-(trifluoro-methoxy)phenyl]methyl}carbamoyl)-1H-1,2,3-triazol-1-yl]butyl}-1,2-dihydropyridin-4-yl)carbamoyl]cyclohexyl]carbamate], the pEC50 in assay [1] is 6.30 to 7.00. Also, in assay [2], the pIC50 was greater than 7.00.
In the case of `CC(C)CC(=O)Nc1ccn(CCCCc2ccc(NC(=O)Cc3cccc(OC(F)(F)F)c3)nn2)c(=O)n1` [Example 111, 3-methyl-N-{2-oxo-1-[4-(6-{2-[3-(trifluoromethoxy)phenyl]acetamido}pyridazin-3-yl)butyl]-1,2-dihydropyrimidin-4-yl}butanamide], the pEC50 in assay [1] was greater than 7.00. The pIC50 in assay [2] is greater than 7.00.
Turning to `CCN1CCC(CC(=O)Nc2ccn(CCCCn3cc(C(=O)NCc4cccc(C(F)(F)F)c4)nn3)c(=O)c2)CC1` [Example 156, 1-(4-{4-[2-(1-ethylpiperidin-4-yl)acetamido]-2-oxo-1,2-dihydropyridin-1-yl}butyl)-N-{[3-(trifluoromethyl)phenyl]methyl}-1H-1,2,3-triazole-4-carboxamide], in assay [1], the pEC50 was 5.30 to 6.30. Further, the pIC50 in assay [2] was 6.30 to 7.00.
Taken in the same sequence, the figures for `O=C(CC1CCCCC1)Nc1ccn(CCC(F)Cn2cc(C(=O)NCc3cc(C(F)(F)F)ccn3)nn2)c(=O)c1` (stereo not drawn) [Example 178, 1-{4-[4-(2-cyclohexylacetamido)-2-oxo-1,2-dihydropyridin-1-yl]-2-fluorobutyl}-N-{[4-(trifluoromethyl)pyridin-2-yl]methyl}-1H-1,2,3-triazole-4-carboxamide] were greater than 7.00 and greater than 7.00.
Take `O=C(CC1CCC1)Nc1ccn(CCC(F)Cn2cc(C(=O)NCc3ncccc3F)nn2)c(=O)c1F` (stereo not drawn) [Example 356, 1-{4-[4-(2-cyclobutylacetamido)-3-fluoro-2-oxo-1,2-dihydropyridin-1-yl]-2-fluorobutyl}-N-[(3-fluoropyridin-2-yl)methyl]-1H-1,2,3-triazole-4-carboxamide]: the pEC50 in assay [1] was 6.30 to 7.00. The negative-log IC50 (pIC50) in assay [2] is 6.30 to 7.00.
In the case of `O=C(Cc1ccccc1)Nc1ccc(CCCCn2ccc(NC(=O)[C@H](O)c3ccccc3)nc2=O)nn1` [Example 100, (2R)-2-hydroxy-N-(2-oxo-1-{4-[6-(2-phenylacetamido)pyridazin-3-yl]butyl}-1,2-dihydropyrimidin-4-yl)-2-phenylacetamide], the pEC50 in assay [1] was 5.30 to 6.30. Also, in assay [2], the pIC50 is greater than 7.00.
Turning to `O=C(CC1CCCCC1)Nc1ccn(CCCCn2cc(C(=O)NC(CO)c3ccccc3)nn2)c(=O)c1` (stereo not drawn) [Example 192, 1-{4-[4-(2-cyclohexylacetamido)-2-oxo-1,2-dihydropyridin-1-yl]butyl}-N-(2-hydroxy-1-phenylethyl)-1H-1,2,3-triazole-4-carboxamide], the pEC50 in assay [1] was less than 5.30. Besides, in assay [2], the pIC50 is 6.30 to 7.00.
